The source of these data is patent publication US7344710B2 (priority 2001, dated 2008).

One data set relates to HCT116 tumor xenograft. Also noted: species or system mice. Conditions: mouse, in vivo.
A further data set concerns B16 tumors. On the set-up: species or system mice. Conditions: mouse, in vivo.
For data set [1] the following is noted: mouse, in vivo.

As for COBALT, in the data set on HCT116 tumor xenograft, the “Effect on tumor growth (FIG. 6A, 6B)” value was “tumors actually shrinking rather than simply slowing”; the “Mice cured / complete tumor regression / long-term tumor-free survival” value was “four were apparently cured of their tumor and Four of these seven mice were cured and four of eight and half”; the “Mice developing striking hemorrhagic necrosis of their tumors” value is given as “seven of eight”; the “Time at which a black spot of hemorrhagic necrosis is evident” value worked out at 0.3 days. In the data set with HCT116 tumor xenograft, the “Visible hemorrhagic necrosis and disappearance of tumors (FIG. 5)” value is “dramatic effects on large subcutaneous tumors”. Also, the “Effect on tumor growth (FIG. 6C)” value in the data set with B16 tumors is “tumors remained small over the four week course of this experiment”. In addition, in data set [1], the “Deaths after a single dose of COBALT” value is given as “three of the mice died” and the “Deaths after the first dose of COBALT” value is given as “Four mice died”.
